Experiment: xn = mol fraction of the nth substance listed
Settings: 101 kPa, Liquid

CCCCCCCCCCCO [1-undecanol] + CCCCCCCCCCO
Settings | mass density, 293.15 K [kg/m3] | mass density, 298.15 K [kg/m3] | mass density, 303.15 K [kg/m3] | mass density, 308.15 K [kg/m3] | mass density, 313.15 K [kg/m3] | viscosity, 293.15 K [mPa·s] | viscosity, 298.15 K [mPa·s] | viscosity, 303.15 K [mPa·s] | viscosity, 308.15 K [mPa·s] | viscosity, 313.15 K [mPa·s]
x2 = 0 | 832.2 | 828.8 | 825.4 | 821.7 | 818.6 | 17.28 | 13.72 | 11.52 | 9.35 | 7.841
x2 = 0.1007 | 832 | 828.7 | 825.2 | 821.6 | 818.2 | 16.88 | 13.52 | 11.27 | 9.368 | 7.805
x2 = 0.1997 | 831.5 | 828.1 | 824.8 | 821.4 | 818 | 16.68 | 13.31 | 11.08 | 9.233 | 7.778
x2 = 0.2999 | 831.4 | 828 | 824.6 | 821.2 | 817.8 | 16.14 | 13.23 | 10.89 | 9.057 | 7.655
x2 = 0.3998 | 831.2 | 827.8 | 824.4 | 821 | 817.5 | 16.08 | 12.88 | 10.7 | 8.909 | 7.579
x2 = 0.4997 | 831 | 827.6 | 824.2 | 820.8 | 817.3 | 15.59 | 12.79 | 10.51 | 8.76 | 7.452
x2 = 0.5978 | 830.8 | 827.4 | 824 | 820.6 | 817.1 | 15.59 | 12.58 | 10.34 | 8.652 | 7.323
x2 = 0.6999 | 830.5 | 827.1 | 823.7 | 820.3 | 816.9 | 15.28 | 12.35 | 10.14 | 8.504 | 7.249
x2 = 0.7989 | 830.4 | 827 | 823.5 | 820.2 | 816.7 | 14.5 | 12.12 | 9.958 | 8.357 | 7.068
x2 = 0.8995 | 830.1 | 826.8 | 823.3 | 819.9 | 816.5 | 14.76 | 11.98 | 9.777 | 8.185 | 6.94

CCCCCCCCCCCO [1-undecanol] + CCCCCCCCCO
Settings | mass density, 293.15 K [kg/m3] | mass density, 298.15 K [kg/m3] | mass density, 303.15 K [kg/m3] | mass density, 308.15 K [kg/m3] | mass density, 313.15 K [kg/m3] | viscosity, 293.15 K [mPa·s] | viscosity, 298.15 K [mPa·s] | viscosity, 303.15 K [mPa·s] | viscosity, 308.15 K [mPa·s] | viscosity, 313.15 K [mPa·s]
x2 = 0 | 832.2 | 828.8 | 825.4 | 821.7 | 818.6 | 17.28 | 13.72 | 11.52 | 9.35 | 7.841
x2 = 0.1002 | 831.7 | 828.3 | 824.9 | 821.5 | 818.1 | 16.58 | 13.43 | 11.15 | 9.247 | 7.609
x2 = 0.1996 | 831.3 | 827.9 | 824.5 | 821.1 | 817.7 | 16.08 | 12.83 | 10.73 | 8.926 | 7.373
x2 = 0.3004 | 830.9 | 827.5 | 824.1 | 820.7 | 817.3 | 15.38 | 12.55 | 10.37 | 8.681 | 7.298
x2 = 0.4001 | 830.6 | 827.2 | 823.8 | 820.3 | 816.9 | 14.91 | 11.98 | 9.973 | 8.333 | 7.04
x2 = 0.5 | 830.2 | 826.8 | 823.4 | 819.9 | 816.5 | 14.29 | 11.52 | 9.577 | 8.014 | 6.872
x2 = 0.6002 | 829.8 | 826.4 | 823 | 819.5 | 816.1 | 13.61 | 11.32 | 9.2 | 7.71 | 6.627
x2 = 0.6994 | 830.1 | 826.6 | 823.2 | 819.7 | 816.3 | 12.84 | 10.55 | 8.746 | 7.333 | 6.267
x2 = 0.7995 | 829.1 | 825.6 | 822.2 | 818.8 | 815.3 | 12.68 | 10.35 | 8.272 | 7.133 | 6.138
x2 = 0.8988 | – | – | – | 818.1 | – | – | – | – | 6.897 | –
x2 = 0.8997 | 828.4 | 825 | 821.5 | – | 814.6 | 12.13 | 9.929 | 8.195 | – | 5.93

CCCCCCCCCCCO [1-undecanol] + CCCCCCCCO
Settings | mass density, 293.15 K [kg/m3] | mass density, 298.15 K [kg/m3] | mass density, 303.15 K [kg/m3] | mass density, 308.15 K [kg/m3] | mass density, 313.15 K [kg/m3] | viscosity, 293.15 K [mPa·s] | viscosity, 298.15 K [mPa·s] | viscosity, 303.15 K [mPa·s] | viscosity, 308.15 K [mPa·s] | viscosity, 313.15 K [mPa·s]
x2 = 0 | 832.2 | 828.8 | 825.4 | 821.7 | 818.6 | 17.28 | 13.72 | 11.52 | 9.35 | 7.841
x2 = 0.1003 | 831.5 | 828.1 | 824.8 | 821.3 | 817.8 | 16.4 | 13.35 | 10.95 | 9.118 | 7.665
x2 = 0.2001 | 831 | 827.6 | 824.2 | 820.7 | 817.3 | 15.21 | 12.54 | 10.36 | 8.645 | 7.35
x2 = 0.2998 | 830.5 | 827 | 823.6 | 820.2 | 816.8 | 14.4 | 11.97 | 9.808 | 8.207 | 6.995
x2 = 0.4001 | – | – | 822.9 | – | – | – | – | 9.281 | – | –
x2 = 0.4002 | 829.7 | 826.3 | – | 819.5 | 816 | 13.8 | 11.23 | – | 7.773 | 6.652
x2 = 0.4999 | 829 | 825.6 | 822.2 | 818.8 | 815.3 | 12.78 | 10.64 | 8.745 | 7.392 | 6.336
x2 = 0.5998 | 828.3 | 824.9 | 821.5 | 818.1 | 814.6 | 12.19 | 9.948 | 8.252 | 6.989 | 5.991
x2 = 0.6998 | 827.7 | 824.3 | 820.8 | 817.4 | 813.9 | 10.95 | 9.276 | 7.691 | 6.49 | 5.615
x2 = 0.8 | 826.9 | 823.5 | 820.1 | 816.6 | 813.1 | 10.24 | 8.693 | 7.271 | 6.137 | 5.295
x2 = 0.8999 | 826.2 | 822.8 | 819.3 | 815.8 | 812.3 | 9.416 | 8.002 | 6.723 | 5.728 | 4.957

CCCCCCCCCCO [decan-1-ol] + CCCCCCCCCCCO
x1 = 1
Settings | mass density [kg/m3] | viscosity [mPa·s]
293.15 K | 829.9 | 14.39
298.15 K | 826.5 | 11.74
303.15 K | 823 | 9.561
308.15 K | 819.6 | 8
313.15 K | 816.3 | 6.831

CCCCCCCCCCO [decan-1-ol] + CCCCCCCCCO
x2 = 0
Settings | mass density [kg/m3] | viscosity [mPa·s]
283.15 K | 836.6 | 22.06
288.15 K | 833.3 | 17.99
293.15 K | 829.9 | 14.39
298.15 K | 826.5 | 11.74
303.15 K | 823 | 9.561
308.15 K | 819.6 | 8
313.15 K | 816.3 | 6.831

CCCCCCCCCO [nonan-1-ol] + CCCCCCCCCCCO
x1 = 1
Settings | mass density [kg/m3] | viscosity [mPa·s]
293.15 K | 828.1 | 11.63
298.15 K | 824.7 | 9.519
303.15 K | 821.3 | 7.806
308.15 K | 817.8 | 6.604
313.15 K | 814.3 | 5.668

CCCCCCCCO [octan-1-ol] + CCCCCCCCCCCO
x1 = 1
Settings | mass density [kg/m3] | viscosity [mPa·s]
293.15 K | 825.2 | 8.944
298.15 K | 821.9 | 7.498
303.15 K | 818.4 | 6.273
308.15 K | 815 | 5.342
313.15 K | 811.4 | 4.54

CCCCCCCCO [octan-1-ol] + CCCCCCCCCCO
x1 = 1
Settings | mass density [kg/m3] | viscosity [mPa·s]
283.15 K | 832.1 | 13.49
288.15 K | 828.6 | 10.87
293.15 K | 825.2 | 8.944
298.15 K | 821.9 | 7.498
303.15 K | 818.4 | 6.273
308.15 K | 815 | 5.342
313.15 K | 811.4 | 4.54

From the NIST ThermoML archive (doi:10.1021/je050200w)
